One data set deals with T1, P2Y12 receptor (Homo sapiens, UniProt Q9H244).
T1 construct: expressed in transfected cells; host or cells: CHO cells (membranes)
Put plainly: Functional inhibition of 2-Me-S-ADP induced P2Y12 signalling (35S-GTPγS, cell membranes). It is filed as biochemical. Conditions: membranes from P2Y12 transfected CHO-cells, EC80 concentration of agonist 2-methyl-thio-adenosine diphosphate, 30° C. for 45 min. On the procedure: Functional inhibition of the P2Y12 receptor can be measured by in vitro assays using cell membranes from P2Y12 transfected CHO-cells, the methodology is indicated below.
Functional inhibition of 2-Me-S-ADP induced P2Y12 signalling: 5 μg of membranes were diluted in 200 μl of 200 mM NaCl, 1 mM MgCl2, 50 mM HEPES (pH 7.4), 0.01% BSA, 30 μg/ml saponin and 10 μM GDP. To this was added an EC80 concentration of agonist (2-methyl-thio-adenosine diphosphate), the required concentration of test compound and 0.1 μCi ^35S-GTPγS. The reaction was allowed to proceed at 30° C. for 45 min. Samples were then transferred on to GF/B filters using a cell harvester and washed with wash buffer (50 mM Tris (pH 7.4), 5 mM MgCl2, 50 mM NaCl). Filters were then covered with scintillant and counted for the amount of ^35S-GTPγS retained by the filter. Maximum activity was that determined in the presence of the agonist and minimum activity in the absence of the agonist following subtraction of the value determined for nonspecific activity. The effect of compounds at various concentrations was plotted according to the equation
y=A+((B−A)/(1+((C/x)̂D)))
and IC50 estimated where A is the bottom plateau of the curve i.e. the final minimum y value B is the top of the plateau of the curve i.e. the final maximum y value C is the x value at the middle of the curve. […]
(In general: Binding of GTPγS marks nucleotide exchange on a G protein.)

Data set [1] is described as follows: Moisture adsorption of crystalline form on storage at 80% RH. It is filed as physicochemical. Conditions: stored at 80% RH (ambient). On the procedure: The crystalline forms may be further characterised by the presence of one or more of the additional properties listed below: • (i) for Form I • (I) when characterised by thermogravimetric analysis, a weight loss of approx. 0.8% occurs in the range from 25° C. up to 205° C., and/or • (II) when characterised by differential scanning calorimetry, at a heating rate of 10° C. per minute in a closed cup with a pinhole under flowing nitrogen, a melting temperature (Tm) having an onset at about 194° C. and/or an associated endotherm of melting of about 96 J/g; and/or • (III) when stored at 80% RH (ambient) less than 0.2% moisture is adsorbed, • (i) […] • (I) when characterised by thermogravimetric analysis, a weight loss of approx. 0.2% occurs in the range from 25° C. up to 205° C., and/or • (II) when characterised by differential scanning calorimetry, at a heating rate of 10° C. per minute in a closed cup with a pinhole under flowing nitrogen, a melting temperature (Tm) having an onset at about 193° C. and/or an associated endotherm of melting of about 105 J/g.

T1 sequence (Q9H244 whole entry): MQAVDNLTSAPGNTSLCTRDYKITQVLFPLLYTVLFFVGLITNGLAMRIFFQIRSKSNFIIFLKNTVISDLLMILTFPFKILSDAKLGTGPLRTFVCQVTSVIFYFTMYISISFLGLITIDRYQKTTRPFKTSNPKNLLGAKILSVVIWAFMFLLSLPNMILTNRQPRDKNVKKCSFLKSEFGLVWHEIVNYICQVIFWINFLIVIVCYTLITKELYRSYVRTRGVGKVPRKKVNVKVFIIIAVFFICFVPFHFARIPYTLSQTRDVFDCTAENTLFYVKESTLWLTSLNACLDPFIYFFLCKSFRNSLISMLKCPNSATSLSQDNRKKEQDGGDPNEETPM

The IC50 is the point on the concentration scale where inhibition reaches its midpoint. Read a high IC50 as lower potency. In the case of `Cc1nc(N2CC(C(=O)NS(=O)(=O)Cc3cccc(F)c3)C2)c(C#N)cc1C(=O)OC(C)C` [Example 91, Isopropyl 5-cyano-6-[3-({[(3-fluorobenzyl)sulfonyl]amino}carbonyl)azetidin-1-yl]-2-methylnicotinate], the IC50 at P2Y12 receptor was 0.46 µM.

In turn, `CCOC(=O)c1cc(C#N)c(N2CCC(C(=O)NS(=O)(=O)Cc3ccc(C(C)C)cc3)CC2)nc1C` [Example 119, Ethyl 5-cyano-6-[4-({[(4-isopropylbenzyl)sulfonyl]amino}carbonyl)piperidin-1-yl]-2-methylnicotinate] registered an IC50 on P2Y12 receptor of 0.25 µM.

In the case of `CCOC(=O)c1cc(C#N)c(N2CCC(C(=O)NS(=O)(=O)Cc3ccccc3)CC2)nc1C` [Form I, 6-(4-{[(benzylsulfonyl)amino]carbonyl}piperidin-1-yl)-5-cyano-2-methylnicotinic acid ethyl ester], in data set [1], the moisture adsorbed result is “less than 0.2%”.

The record behind these values is patent publication US20080312208A1, “Pyridine Analogues” (ASTRAZENECA AB, priority 2005, published 2008).
